Data on 28 compounds can be found in patent US8759535B2, “Substituted fused imidazole derivatives, pharmaceutical compositions, and methods of use thereof” (High Point Pharmaceuticals, LLC, priority 2010, dated 2014).

The subject of the test is HMOX1. Description: HMOX1 Protein Assay (immunostaining of HO-1 in NHLF cells, GE InCell 1000). Type of test: cell-based. The settings on record: Homo sapiens, fold change above DMSO treated cells, 16 h; for fold induction at 5 µM: 5 μM compound; for fold induction at 3 µM: 3 μM compound (asterisk). The method in brief: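 Fold induction of HO-1 over vehicle, normally at 5 μM compound (asterisk marks 3 μM), in 0.8% DMSO medium. Normal human lung fibroblasts were treated 16 h, then paraformaldehyde-fixed, anti-HO-1/Alexa 488 stained with Hoechst, and read by high-content imaging.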

Where a name gives a salt, the structure may show the parent alone.

As a reminder, the fold induction is the signal under treatment as a multiple of the control signal. The compound `COCCn1c(Nc2nc3ccc(Cl)cc3s2)nc2cc(C(=O)NCC(=O)N3CCC(O)CC3)ccc21` [Example 438, 2-(6-Chloro-benzothiazol-2-ylamino)-1-(2-methoxy-ethyl)-1H-benzoimidazole-5-carboxylic acid [2-(4-hydroxy-piperidin-1-yl)-2-oxo-ethyl]-amide] registered a fold induction at 5 µM of 25.9. The same measure, in the same setting: the result for `COCCNC(=O)c1ccc2c(c1)nc(Nc1nc3ccc(OC(F)(F)F)cc3s1)n2C` [Example 8, 1-Methyl-2-(6-trifluoromethoxy-benzothiazol-2-ylamino)-1H-benzoimidazole-5-carboxylic acid (2-methoxy-ethyl)-amide] reads 18.3; that for `COC(C)(C)CNC(=O)c1ccc2c(c1)nc(Nc1nc3ccc(OC(F)(F)F)cc3s1)n2C` [Example 22, 1-Methyl-2-(6-trifluoromethoxy-benzothiazol-2-ylamino)-1H-benzoimidazole-5-carboxylic acid (2-methoxy-2-methyl-propyl)-amide], 18.7; that for `COCCn1c(Nc2nc3ccc(Cl)cc3s2)nc2cc(C(=O)NCC(=O)N3CC[C@H](O)C3)ccc21` [Example 405, 2-(6-Chloro-benzothiazol-2-ylamino)-1-(2-methoxy-ethyl)-1H-benzoimidazole-5-carboxylic acid [2-((S)-3-hydroxy-pyrrolidin-1-yl)-2-oxo-ethyl]-amide], 21.4. Still for that read-out and setting: the same measure for `C[C@H](O)C(=O)NCCNC(=O)c1ccc2c(c1)nc(Nc1nc3ccc(OC(F)(F)F)cc3s1)n2C` [Example 326, 1-Methyl-2-(6-trifluoromethoxy-benzothiazol-2-ylamino)-1H-benzoimidazole-5-carboxylic acid [2-((S)-2-hydroxy-propionylamino)-ethyl]-amide]: 34.3; for `CN(C)C(=O)CNC(=O)c1ccc2c(c1)nc(Nc1nc3ccc(C(F)(F)F)cc3s1)n2C` [Example 134, 1-Methyl-2-(6-trifluoromethyl-benzothiazol-2-ylamino)-1H-benzimidazole-5-carboxylic acid dimethylcarbamoylmethyl-amide]: 54.5. Regarding `CN(C(=O)CNC(=O)c1ccc2c(c1)nc(Nc1nc3ccc(Cl)cc3s1)n2C)C1CCCNC1` (stereo not shown) [Example 396, 2-(6-Chloro-benzothiazol-2-ylamino)-1-methyl-1H-benzoimidazole-5-carboxylic acid [(methyl-piperidin-3-yl-carbamoyl)-methyl]-amide hydrochloride], the fold induction at 5 µM came out at 36.

In turn, `Cn1c(Nc2nc3ccc(OC(F)(F)F)cc3s2)nc2cc(C(=O)NCCC3CCC(O)CC3)ccc21` (stereo not shown) [Example 253, 1-Methyl-2-(6-trifluoromethoxy-benzothiazol-2-ylamino)-1H-benzoimidazole-5-carboxylic acid [2-(4-hydroxy-cyclohexyl)-ethyl]-amide] returned a fold induction at 5 µM of 26.6. The compound `CN(C)CC(=O)N1CCC[C@H](NC(=O)c2ccc3c(c2)nc(Nc2nc4ccc(Cl)cc4s2)n3C)C1` [Example 312, 2-(6-Chloro-benzothiazol-2-ylamino)-1-methyl-1H-benzoimidazole-5-carboxylic acid [(S)-1-(2-dimethylamino-acetyl)-piperidin-3-yl]-amide] displayed a fold induction at 5 µM of 68.8.

Turning to `Cn1c(Nc2nc3ccc(OC(F)(F)F)cc3s2)nc2cc(C(=O)NCCN3CCS(=O)(=O)CC3)ccc21` [Example 342, 1-Methyl-2-(6-trifluoromethoxy-benzothiazol-2-ylamino)-1H-benzoimidazole-5-carboxylic acid [2-(1,1-dioxo-thiomorpholin-4-yl)-ethyl]-amide], the fold induction at 3 µM was determined as 36.8. In turn, `Cn1c(Nc2nc3ccc(OC(F)(F)F)cc3s2)nc2cc(C(=O)NCC(=O)N3CCC(Oc4ncccn4)CC3)ccc21` [Example 452, 1-Methyl-2-(6-trifluoromethoxy-benzothiazol-2-ylamino)-1H-benzoimidazole-5-carboxylic acid {2-oxo-2-[4-(pyrimidin-2-yloxy)-piperidin-1-yl]-ethyl}-amide] had a fold induction at 5 µM of 71.7. On the same count and under the same terms, the result for `Cn1c(Nc2nc3ccc(Cl)cc3s2)nc2cc(C(=O)NCC(=O)N3CCC(CO)CC3)ccc21` [Example 442, 2-(6-Chloro-benzothiazol-2-ylamino)-1-methyl-1H-benzoimidazole-5-carboxylic acid [2-(4-hydroxymethyl-piperidin-1-yl)-2-oxo-ethyl]-amide] reads 34.9; that for `Cn1c(Nc2nc3ccc(OC(F)(F)F)cc3s2)nc2cc(C(=O)NCCN3CCC(O)CC3)ccc21` [Example 192, 1-Methyl-2-(6-trifluoromethoxy-benzothiazol-2-ylamino)-1H-benzoimidazole-5-carboxylic acid [2-(4-hydroxy-piperidin-1-yl)-ethyl]-amide], 28.8; that for `CN(C)[C@H]1CCN(C(=O)CNC(=O)c2ccc3c(c2)nc(Nc2nc4ccc(OC(F)(F)F)cc4s2)n3C)C1` [Example 416, 1-Methyl-2-(6-trifluoromethoxy-benzothiazol-2-ylamino)-1H-benzoimidazole-5-carboxylic acid [2-((S)-3-dimethylamino-pyrrolidin-1-yl)-2-oxo-ethyl]-amide], 96.6. Still for that read-out and setting: the same measure for `CNC(=O)c1ccc2c(c1)nc(Nc1nc3ccc(C)cc3s1)n2C` [Example 128, 2-(6-Methyl-benzothiazol-2-ylamino)-1-methyl-1H-benzimidazole-5-carboxylic acid methylamide]: 32.7. For `Cn1c(Nc2nc3ccc(OC(F)(F)F)cc3s2)nc2cc(C(=O)NCCS(C)(=O)=O)ccc21` [Example 102, 1-Methyl-2-(6-trifluoromethoxy-benzothiazol-2-ylamino)-1H-benzoimidazole-5-carboxylic acid (2-methanesulfonyl-ethyl)-amide], the fold induction at 5 µM was found to be 22.6.

As for `CNC(=O)CNC(=O)c1ccc2c(c1)nc(Nc1nc3ccc(Cl)cc3s1)n2C` [Example 380, 2-(6-Chloro-benzothiazol-2-ylamino)-1-methyl-1H-benzoimidazole-5-carboxylic acid methylcarbamoylmethyl-amide], the fold induction at 3 µM amounted to 30.

In turn, `CCOCCNC(=O)c1cc2nc(Nc3nc4ccc(OC(F)(F)F)cc4s3)n(C)c2cc1F` [Example 57, 6-Fluoro-1-methyl-2-(6-trifluoromethoxy-benzothiazol-2-ylamino)-1H-benzoimidazole-5-carboxylic acid (2-ethoxy-ethyl)-amide] yielded a fold induction at 5 µM of 32. Same read-out and setting: the result for `CN1CCC(NC(=O)c2ccc3c(c2)nc(Nc2nc4ccc(Cl)cc4s2)n3C)CC1` [Example 319, 2-(6-Chloro-benzothiazol-2-ylamino)-1-methyl-1H-benzoimidazole-5-carboxylic acid (1-methyl-piperidin-4-yl)-amide] reads 23.9; that for `Cn1c(Nc2nc3ccc(OC(F)(F)F)cc3s2)nc2cc(C(=O)NCCCS(C)(=O)=O)ccc21` [Example 110, 1-Methyl-2-(6-trifluoromethoxy-benzothiazol-2-ylamino)-1H-benzimidazole-5-carboxylic acid (3-methanesulfonyl-propyl)-amide], 26.3. `Cn1c(Nc2nc3ccc(OC(F)(F)F)cc3s2)nc2cc(C(=O)NCCCOCCO)ccc21` [Example 250, 1-Methyl-2-(6-trifluoromethoxy-benzothiazol-2-ylamino)-1H-benzoimidazole-5-carboxylic acid [3-(2-hydroxy-ethoxy)-propyl]-amide] registered a fold induction at 3 µM of 25.1. Consider `CNC1CCN(C(=O)CNC(=O)c2ccc3c(c2)nc(Nc2nc4ccc(Cl)cc4s2)n3C)CC1` [Example 454, 2-(6-Chloro-benzothiazol-2-ylamino-1-methyl-1H-benzoimidazole-5-carboxylic acid [2-(4-methylamino-piperidin-1-yl)-2-oxo-ethyl]-amide hydrochloride], for which the fold induction at 5 µM amounted to 62.2. Compound `Cn1c(Nc2nc3ccc(Cl)cc3s2)nc2cc(C(=O)NCC(=O)NC3CCOC3)ccc21` (stereo not shown) [Example 384, 2-(6-Chloro-benzothiazol-2-ylamino)-1-methyl-1H-benzoimidazole-5-carboxylic acid [(tetrahydro-furan-3-ylcarbamoyl)-methyl]-amide] gave a fold induction at 5 µM of 26. Same read-out and setting: the same measure for `CN1CCC[C@@H](NC(=O)CNC(=O)c2ccc3c(c2)nc(Nc2nc4ccc(Cl)cc4s2)n3C)C1` [Example 388, 2-(6-Chloro-benzothiazol-2-ylamino)-1-methyl-1H-benzoimidazole-5-carboxylic acid [((R)-1-methyl-piperidin-3-ylcarbamoyl)-methyl]-amide]: 22. `CCN(CC)CCCNC(=O)c1ccc2c(c1)nc(Nc1nc3ccc(OC(F)(F)F)cc3s1)n2C` [Example 351, 1-Methyl-2-(6-trifluoromethoxy-benzothiazol-2-ylamino)-1H-benzoimidazole-5-carboxylic acid (3-diethylamino-propyl)-amide]: the fold induction at 3 µM was 25.

The compound `CN(C)CCCNC(=O)c1ccc2c(c1)nc(Nc1nc3ccc(Cl)cc3s1)n2C` [Example 349, 2-(6-Chloro-benzothiazol-2-ylamino)-1-methyl-1H-benzoimidazole-5-carboxylic acid (3-dimethylamino-propyl)-amide] had a fold induction at 3 µM of 29. The same measure, in the same setting: the result for `CO[C@H]1CCCN(C(=O)CNC(=O)c2ccc3c(c2)nc(Nc2nc4ccc(Cl)cc4s2)n3C)C1` [Example 444, 2-(6-Chloro-benzothiazol-2-ylamino)-1-methyl-1H-benzoimidazole-5-carboxylic acid [2-((S)-3-methoxy-piperidin-1-yl)-2-oxo-ethyl]-amide] reads 32. For the compound `Cn1c(Nc2nc3ccc(C(F)(F)F)cc3s2)nc2cc(C(=O)NCCC(=O)N3CCOCC3)ccc21` [Example 374, 1-Methyl-2-(6-trifluoromethyl-benzothiazol-2-ylamino)-1H-benzoimidazole-5-carboxylic acid (3-morpholin-4-yl-3-oxo-propyl)-amide], the fold induction at 3 µM was found to be 34.2.
